Laboratory results taken from patent US10675321B2, “Botanical extracts and compounds from Castanea plants and methods of use” (priority 2015, dated 2020).
In brackets after ≈: the same amount, converted by molar mass.

Legend:
Assay type in all cases: cell-based
[1] = tested on: Propionibacterium acnes ATCC6919; assay: Growth inhibition (MIC) of Propionibacterium acnes ATCC6919; details: Cutibacterium acnes
[2] = tested on: Propionibacterium acnes HL005PA2; assay: Growth inhibition (MIC) of Propionibacterium acnes HL005PA2; details: Cutibacterium acnes, P. acnes HL005PA2
[3] = tested on: Staphylococcus aureus AH1747; assay: MIC by microtiter broth dilution, strain AH1747; details: 18 hrs static
[4] = tested on: Staphylococcus aureus AH430; assay: MIC by microtiter broth dilution, strain AH430; details: 18 hrs static; for MIC50: at least 50% inhibition of growth by OD; for MIC90: at least 90% inhibition of growth by OD
[5] = tested on: Staphylococcus aureus AH1872; assay: microbe, parasite or virus in culture; details: AH1872, 18 h
[6] = tested on: Staphylococcus aureus UAMS-1; assay: MIC by microtiter broth dilution, strain UAMS-1; details: 18 hrs static

| Compound | MIC50 [1] [µg/mL] | MIC90 [1] [µg/mL] | MIC50 ([2]; 50% inhibition of the growth control) [µg/mL] | MIC90 ([2]; 90% inhibition) [µg/mL] | MIC50 ([3]; 50% inhibition of growth) [µg/mL] | MIC90 ([3]; 90% inhibition of growth) [µg/mL] | MIC50 [4] [µg/mL] | MIC90 [4] [µg/mL] | MIC50 [5] [µg/mL] | MIC90 [5] [µg/mL] | MIC50 ([6]; UAMS1, 50% inhibition of growth) [µg/mL] | MIC90 ([6]; UAMS1, 90% inhibition of growth) [µg/mL] |
| --- | --- | --- | --- | --- | --- | --- | --- | --- | --- | --- | --- | --- |
| CCC[C@@H]1C[C@@H](C(=O)N[C@@H]([C@H]2O[C@H](SC)[C@H](O)[C@@H](O)[C@H]2O)[C@H](C)Cl)N(C)C1 [Clin, clindamycin] | 0.125 (≈ 0.294 µM) | 0.125 (≈ 0.294 µM) | 0.0625 (≈ 0.147 µM) | 0.25 (≈ 0.588 µM) |  |  |  |  |  |  |  |  |
| NC[C@H]1O[C@H](O[C@H]2[C@H](O)[C@@H](O[C@H]3O[C@H](CO)[C@@H](O)[C@H](N)[C@H]3O)[C@H](N)C[C@@H]2N)[C@H](O)[C@@H](O)[C@@H]1O [Kan, Kanamycin] |  |  |  |  | 1 (≈ 2.06 µM) | 2 (≈ 4.13 µM) | 2 (≈ 4.13 µM) | 4 (≈ 8.26 µM) | 1 (≈ 2.06 µM) | 4 (≈ 8.26 µM) | 2 (≈ 4.13 µM) | 4 (≈ 8.26 µM) |
| CC1(C)S[C@@H]2[C@H](NC(=O)[C@H](N)c3ccccc3)C(=O)N2[C@H]1C(=O)O [Amp, Ampicillin] |  |  |  |  |  |  | 0.0625 (≈ 0.179 µM) | 0.125 (≈ 0.358 µM) | 4 (≈ 11.4 µM) | 8 (≈ 22.9 µM) |  |  |
